Data as given in patent US20220340597A1, “HEXAHYDRO-1H-PYRAZINO[1,2-A]PYRAZINE COMPOUNDS FOR THE TREATMENT OF AUTOIMMUNE DISEASE” (Hoffmann-La Roche Inc., priority 2019, published 2022).

Test system: TLR7 agonist-induced lupus-like disease
Assay: R848 agonist induced mouse lupus nephritis disease model
Type: in vivo, BALB/c mice
Details: 10 mg/kg orally once daily
Text: Agonist Induced Mouse Lupus Nephritis Disease Model To assess compound efficacy in vivo against lupus nephritis, we utilized a murine model of TLR7 agonist-induced lupus-like disease, in which TLR7 activation leads to the development of systemic autoimmune symptoms with elevated levels of autoantibodies to double-stranded DNA (anti-dsDNA), inflammatory cytokines such as IP10, as well as multiple organs involvement especially in kidney and spleen. BALB/c mice were purchased from Vital River Laboratories Co., Ltd., Beijing, China. All mice were 7 to 8-week old female. To induce disease, animals were topically treated on the right ear with 100 μg of Resiquimod (R848) solved in 20 μL of acetone for three times per week. Compound or vehicle treatment was administrated orally once daily and 30 minutes prior to the epicutanenous R848 treatment if they were on the same day. Blood samples were collected once weekly to gauge the level of autoantibody against double stranded DNA and multiple cytokines in serum. The total anti-dsDNA Immunoglobulins in serum were measured according to the manufacturer's instruction with a commercially available ELISA assay (Cat #5110, Alpha Diagnostic Inti Inc.). Cytokine levels in serum were measured with a ProcartaPlex immunoassay Kit (Cat #[…], Thermo Fisher). Specifically, 10 μL of premixed magnetic capture beads were added to a DropArray DA-bead plate (Cat #969-CC-BD-05, Curiox). After washing, 10 μL of diluted sera (1:5) was incubated on the DA-bead plate overnight at 4° c. After washing for three times, 5 μL of premixed detection antibody was added to the plate with an incubation for 60 minutes at room temperature. After washing, 10 μL of Streptavidin-PE was added with an incubation for 30 minutes at room temperature. The beads were then re-suspended in 55 μL Reading Buffer. Samples were analyzed with a Luminex 200 (Millipore). Urine samples were collected once weekly with the animals housed in metabolic cages for 24 hours, and were subjected to the measurements of urinary albumin (UALB), urinary creatinine (UCR) and urinary total protein (UTP) with a Roche Cobas 6000 Chemistry Analyzer (Roche Diagnostics, Mannheim, Germany). Tubular protein scores of 0 to 3 were based on the percentage of tubules containing proteinaceous fluid. Grade 1: <25% of tubules affected; Grade 2: 25 to 50% of tubules affected; Grade 3: >50% of tubules affected. Spleens were harvested and weighed upon study termination to evaluate splenomegaly.

[2H]c1ccc2c(N3C[C@@H]4CN(c5ccc([C@@H]6CNCCO6)cc5)CCN4[C@@H](C)C3)ccc(C#N)c2n1 [Example 106, 5-[(4S,9aS)-4-methyl-8-[4-[(2R)-morpholin-2-yl]phenyl]-3,4,6,7,9,9a-hexahydro-1H-pyrazino[1,2-a]pyrazin-2-yl]-2-deuterio-quinoline-8-carbonitrile]
production of Interferon gamma-induced protein 10 (IP-10) in serum (after 1 week of treatment (FIG. 3A)): inhibited | level of anti-dsDNA autoantibodies in serum (after 2 weeks of treatment (FIG. 3B)): significantly reduces | kidney damage / R848-induced proteinuria (UACR) (after 5 weeks of treatment (FIG. 3C)): no R848-induced proteinuria increase | splenomegaly / spleen weight (after 6 weeks of treatment (FIG. 3D)): prevented splenomegaly
